Here are results for nine compounds from patent publication EP2118065B1, “Substituted 1H-benz[de]isoquinoline-1,3-diones” (priority 2007, dated 2008).

Each structure is given as a SMILES string. Read-outs that look alike come from different tables or passages of the source.

One test concerns U-937 lymphoma. In words: MTT in vitro cytotoxicity. The conditions noted are these: read-out: IC50 value Lymphoma U-937.
For a further test, the system named is HL-60 human leukemia. In words: MTT in vitro cytotoxicity. The conditions noted are these: read-out: IC50 value Leukemia HL-60.
Test [1] relates to MOLT-4 cells. In words: Flow cytometric DNA cell cycle analysis (sub-G1 fraction). The conditions noted are these: camptothecin 1µM, 3 hrs. Format: cell-based, Human. As for the experimental part:
Effect of DNA content by cell cycle phase distribution was assessed using MOLT-4 cells. […] The incubation period was 3 hrs in case of camptothecin and 24 hrs. in rest of the treatments. The cells were then washed twice with ice-cold PBS, harvested, fixed with ice-cold PBS in 70% ethanol, and stored at -20 °C for 30 min. After fixation, the cells were incubated with RNase A (0.1 mg/ml) at 37°C for 30 min, stained with propidium iodide (50 µg/ml) for 30 min on ice in dark, and then measured for DNA content using BD-LSR Flow cytometer (Becton Dickinson, USA) equipped with electronic doublet, discrimination capability using blue (488nm) excitation from argon laser. Data were collected in list mode on 10,000 events for FL2-A vs. FL2-W and analyzed using Mod Fit 2.0 software (Fig 4). […] The sub-G1 fractions for control and camptothecin were 0.64 (Fig. 4A) and 11.92 % (Fig. 4B).

The test system of test [2] is MOLT-4 cells. The test can be described thus: Annexin V-FITC/PI flow cytometric analysis of apoptosis. Type of test: cell-based, Human. The conditions noted are these: 5µM, 6 hrs. As for the experimental part:
Events of apoptosis were analyzed using Annexin V-FITC Apoptosis Detection Kit (A 2214 Sigma Aldrich, USA). Human leukemia Cells (MOLT-4, 1x10^6 cells/ml) in 6-well plate were treated with Compound 3f (3 and 5µg/ml), camptothecin (5µM) and incubated for 6 hrs. After incubation, the cells were centrifuged, rinsed with PBS twice and re-suspended in binding buffer (10 mM HEPES/NaOH, pH 7.5 containing 0.14M NaCl and 25 mM CaCl2). An aliquot (500 µl) of suspension was stained with of Annexin V-FITC (5 µl) and Propidium Iodide (10 µl). The cells were stored for 10 minutes at room temperature in the dark and then analyzed by BD-LSR flow cytometer (Becton Dickinson, USA) at two wavelengths to measure fluorescence for of Annexin V & PI binding at 515 and 639 nm.

In the next test the test system is HL-60 cells. The test is described as above. Type of test: cell-based, human. As to conditions: 24 h. As for the experimental part: Induction of apoptosis in vitro by Compound 3b and 3f was further determined in HL-60 cells by flow cytometric assay using an Annexin V-FITC Apoptosis Detection Kit (BD Biosciences Pharmingen, San Diego, USA). Camptothecin was included in the study for comparison. Exponentially growing HL-60 cells in complete RPMI-1640 media (100 µl of 5×10^6) were plated in six well plates. 10 µl of each Compound in DMSO (5 and 10 µM concentrations) was added to the wells followed by the addition of required media (total volume 1ml). Plates were incubated at 37°C for 24 h. The cells were centrifuged at room temperature at 1500 rpm for 5 min. The pellet was washed twice with cold PBS and was re-suspended in the binding buffer (1X, 100µl) provided in the Kit. The cells were stained with Annexin V-FITC (5 µl) and Propidium Iodide [PI] (5µl) and incubated for 15 min in the dark at 25°C. Next 400µl of binding buffer was added to each tube and analyzed on a FACScan flow cytometer (Becton Dickinson, Mountainview, CA) using Cell Quest software. Cells stained with both Annexin-V-FITC and PI, containing DMSO as vehicle was used as stained control. Cells that were annexin^+ /Pr [Lower right quadrant (LR)] and annexin^+/PI^+ [Upper right quadrant (UR)] were considered as early apoptotic and late apoptotic respectively.

In the next test the test system is S-180. In words: In vivo anticancer activity: increase in median survival time. Also noted: species or system Swiss albino male mice.
The next test has as its system S-180 cells. The test can be described thus: 3H-thymidine and 3H-uridine incorporation in vitro (DNA and RNA synthesis).
Another test concerns IMR-32. The test can be described thus: SRB in vitro cytotoxicity, human tumor cell line. Format: cell-based. The conditions noted are these: 10^-5 M, Neuroblastoma: IMR-32, read-out: growth inhibition. As for the experimental part:
(§1) Compounds 3a-g were screened by sulforhodamine-B (SRB) semi-automated assay in a battery of cell lines. […] A., et. al. (1991); Feasibility high flux anticancer screen utilizing diverse panel of human tumor cell lines in culture. J Natl Cancer Inst. 83, 757-766]. Each compound was tested in triplicate sets of experiments at 10^-4 to 10^-6 M concentrations (Table 4).
(§2) A stock solution of 2 x 10^-2M was prepared in DMSO. The stock solutions were serially diluted to obtain working test solutions with complete growth medium (RPMI-1640 medium with 2mM glutamine, 100µg/ml streptomycin, pH 7.4, sterilized by filtration and supplemented with 10% fetal bovine serum and 100 units/ml penicillin before use) containing 50 µg/ml of gentamycin to obtain working test solutions. The working test solutions were not filtered/ sterilized but microbial contamination was controlled by addition of gentamycin in complete growth medium used for dilution of stock solutions to prepare working test solutions.
(§3) In vitro cytotoxicity against human cancer cell lines was determined^2 [Monk. A., et. al. (1991); Feasibility high flux anticancer screen utilizing diverse panel of human tumor cell lines in culture. J Natl Cancer Inst. 83, 757-766] using 96-well tissue culture plates. The cells were grown in tissue culture flasks in complete growth medium at 37°C in an atmosphere of 5% CO2 and 95% relative humidity in a carbon dioxide incubator. The cell suspension of required cell density (1-2 lakhs/ml) depending on the mass doubling time of cell lines was prepared in complete growth medium for determination of cytotoxicity. The aliquots of 100 µl of cell suspension were added to each well on a 96-well tissue culture plate. The blank wells contained complete medium in place of cell suspension. Simultaneously, control experiments with positive controls containing known anticancer agents were carried out. Cells were incubated for 24 hr.
(§4) The test materials (100 µl in each well) were added after 24-hours to the wells containing cell suspension and blank wells. The cells were allowed to grow in presence of test material by further incubating the plates for 48 hours. At the end of incubation period the cell growth was stopped by gently layering trichloroacetic acid (50% TCA, 50µl/well) on top of the medium in all the wells. The plates were incubated at 4°C for 1 hr. The plates were washed five times with distilled water to remove TCA, growth medium, low molecular weight metabolites, serum proteins etc. and air-dried.
(§5) The cell growth was measured^3 [Skehan, P, Storeng, R Scudiero, D, Monks, A, Mcmahon, J, Vistica, D, Warren, J.T., Bokesch, H., Kenney, S., Boyd, M.R. (1990). New colorimetric cytotoxicity assay for anti-cancer drug screening. J Natl Cancer Inst. 82: 1107-12] by staining with Sulphorhodamine B. Sulphorhodamine B (SRB, 0.4% in 1% acetic acid, 100 µl/well) was added to each well and plates were allowed to stand at room temperature for 30 minutes. The plates were washed with 1% acetic acid four times and then dried. Tris-HCl buffer (0.01 M, pH 10.5, 100 µl/well) was added to each well to solublise the dye. The plates were shaken gently for 10 minutes on a shaker and the optical density was recorded on ELISA reader at 540 nm. The cell growth was determined by subtracting mean OD value of respective blank from the mean OD value of experimental set. Percent growth in presence of test material was calculated considering the growth in absence of any test material as 100% and in turn percent growth inhibition in presence of test material was calculated. All the experiments were carried out in quadruplicate.

Another test deals with SW-620. The test can be described thus: SRB in vitro cytotoxicity, human tumor cell line. Type of test: cell-based. As to conditions: 10^-5 M, Colon: SW-620, read-out: growth inhibition. As for the experimental part: as §1, §2, §3, §4, §5
For a further test, the system named is 502713. The test can be described thus: SRB in vitro cytotoxicity, human tumor cell line. Type of test: cell-based. As to conditions: 10^-5 M, Colon: 502713, read-out: growth inhibition. As for the experimental part:
as §1, §2, §3, §4, §5

The test system of a further test is HCT-15. The test can be described thus: SRB in vitro cytotoxicity, human tumor cell line. Type of test: cell-based. The conditions noted are these: 10^-5 M, Colon: HCT-15, read-out: growth inhibition. How it is done:
as §1, §2, §3, §4, §5

Where [3] appears, read: S-180, 0.5 mg/kg i.p., 7 injns., days 1-7.
Setting [4] is: S-180, 1 mg/kg i.p., 7 injns., days 1-7.
[5] abbreviates: S-180, 30 mg/kg i.p., 7 injns., days 1-7.
[6] abbreviates: S-180, 60 mg/kg i.p., 7 injns., days 1-7.
[7] abbreviates: S-180, 60 mg/kg i.p., 7 injns., days 5-11.
Setting [8] is: S-180, 6 mg/kg i.p., 7 injns., days 1-7.
Where [9] appears, read: S-180, 20 mg/kg i.p., 7 injns., days 1-7.

Broadly, the IC50 is the concentration that gives 50% inhibition. Turning to `N.N.[Cl][Pt][Cl]` [Cis-Platinum], the IC50 with U-937 lymphoma (MTT, 96 h) is 3.2 µM; with HL-60 human leukemia (MTT, 96 h), 7 µM.

As to `O=NN(CCCl)C(=O)NCCCl` [BCNU, Bis (2-chloroethyl-nitrosourea)], the IC50 with U-937 lymphoma (MTT, 96 h) is 12.3 µM; in the test on HL-60 human leukemia (MTT, 96 h), 30.5 µM.

For the compound `CC[C@@]1(O)C(=O)OCc2c1cc1n(c2=O)Cc2cc3ccccc3nc2-1` [camptothecin, reference compound], the sub-G1 fraction in the test with MOLT-4 cells [1] was found to be 11.92%. For the same compound, the total apoptotic cells with MOLT-4 cells [2] turned out to be 8.83%. In addition, in the test with HL-60 cells (5 µM), the “early apoptotic cells (Annexin V^+/PI^-), LR” value (“early apoptotic cells” for short) was found to be 7.79%; the “late apoptotic cells (Annexin V^+/PI^+), UR” value (“late apoptotic cells” below) stood at 5.46%; the “total apoptotic cells (apoptotic cell population)” value worked out at 13.3%. Besides, in the test with HL-60 cells (10 µM), the “early apoptotic cells” value is given as 10.52%; the “late apoptotic cells” value came out at 5.30%; the “total apoptotic cells (apoptotic cell population)” value is reported as 15.8%.

By inhibition is commonly meant the drop in the measured response relative to a control, in per cent. `CN(C)CCN1C(=O)c2cccc3cc([N+](=O)[O-])cc(c23)C1=O` [Mitonafide, reference compound]: in the test with S-180 (setting [3]), the “MST” value is 36.5 days, the “Survivors > 60 days” value was 1 and the T/C % was found to be 187%. Besides, in the test on S-180 (setting [4]), the “MST” value was found to be 25.0 days and the T/C % amounted to 128%. Moreover, in the test on S-180 cells (Mus musculus, S-180, read-out: DNA synthesis inhibition (3H-thymidine uptake)), the inhibition at 8 µM worked out at 93%. In the test with S-180 cells (S-180 cells, 8 µM, 1 hr incubation, with respect to control), the “RNA synthesis inhibition (3H-uridine uptake)” value is recorded as 92%.

For `O=C1c2cccc3c([N+](=O)[O-])ccc(c23)C(=O)N1CCCl` [Compound 3b, 6-Nitro-2-[2-(Chloroethyl)]-1H-benz[de]isoquinoline-1,3-dione], the inhibition at 10 µM in the test with IMR-32, with SW-620, with 502713 and with HCT-15 was above 50% each time. Further, the IC50 in the test with U-937 lymphoma (Homo sapiens, U-937, 96 h) is 0.66 µM; with HL-60 human leukemia (Homo sapiens, HL-60, 96 h) it was 0.8 µM. The “MST” value was found to be 20.5 days in the test on S-180 (S-180, 40 mg/kg i.p., 7 injns., days 1-7) and 23.0 days in the test with S-180 (S-180, 80 mg/kg i.p., 7 injns., days 1-7). Also, the “early apoptotic cells” value stood at 4.5% in the test with HL-60 cells (5 µM) and 15.3% with HL-60 cells (10 µM). The figures for the “late apoptotic cells” value in the test on HL-60 cells (5 µM) and in the test with HL-60 cells (10 µM) were 5.2% and 33.5%, respectively. The results for the “total apoptotic cells (apoptotic cell population)” value in the test with HL-60 cells (5 µM) and with HL-60 cells (10 µM) were 9.7% and 48.8%, respectively.

Regarding `O=C1c2cccc3cc([N+](=O)[O-])cc(c23)C(=O)N1CCCCl` [Compound 3g, 5-Nitro-2-[3-(Chloropropyl)]-1H-benz[de]isoquinoline-1,3-dione], the figures for the “MST” value in the test on S-180 (setting [5]), in the test on S-180 (setting [6]) and in the test with S-180 (setting [7]) were 25.5 days, 24.0 days and 25.0 days, respectively. The T/C % in the test on S-180 (setting [5]) stood at 106%; in the test on S-180 (setting [6]) it was 129%; with S-180 (setting [7]) it was 104%.

`NC(=O)NO` [Hydroxyurea]: the IC50 in the test with U-937 lymphoma (Homo sapiens, U-937, 96 h) stood at 115 µM; in the test with HL-60 human leukemia (Homo sapiens, HL-60, 96 h), 204 µM.

Take `O=P1(N(CCCl)CCCl)NCCCO1` (stereo not shown) [Cyclophosphamide, reference compound]: in the test with S-180 (setting [8]), the “MST” value is reported as 33.0 days and the T/C % was determined as 143%.

Turning to `O=c1[nH]cc(F)c(=O)[nH]1` [Compound 5-FU, 5-fluorouracil, reference compound], the IC50 with U-937 lymphoma (Homo sapiens, U-937, 96 h) amounted to 4.7 µM; with HL-60 human leukemia (Homo sapiens, HL-60, 96 h) it was 266 µM. The “MST” value in the test on S-180 (setting [9]) is 53.5 days. Moreover, the “Survivors > 60 days” value with S-180 (setting [9]) is 3. In addition, the T/C % is recorded as 233% in the test on S-180 (setting [9]) and 233 with S-180 (mouse, in vivo).
